Measurements as given in PMC7932080, “In vitro study of Hesperetin and Hesperidin as inhibitors of zika and chikungunya virus proteases” (PLoS ONE, 2021).
Values joined by “and” are separate entries in the source; they are usually repeats but may differ in a detail not shown here. Equal values may be shown once. Read-outs that look alike come from different tables or passages of the source.

Molecular target: CHIKV nsP2^pro (Chikungunya virus, UniProt Q8JUX6)
Experiment: CHIKV nsP2^pro FRET-based inhibition assay
Format: biochemical
Conditions: for % activity, mean / % inhibition, mean: mean n=3

Sequence of CHIKV nsP2^pro (Q8JUX6 1001-1333): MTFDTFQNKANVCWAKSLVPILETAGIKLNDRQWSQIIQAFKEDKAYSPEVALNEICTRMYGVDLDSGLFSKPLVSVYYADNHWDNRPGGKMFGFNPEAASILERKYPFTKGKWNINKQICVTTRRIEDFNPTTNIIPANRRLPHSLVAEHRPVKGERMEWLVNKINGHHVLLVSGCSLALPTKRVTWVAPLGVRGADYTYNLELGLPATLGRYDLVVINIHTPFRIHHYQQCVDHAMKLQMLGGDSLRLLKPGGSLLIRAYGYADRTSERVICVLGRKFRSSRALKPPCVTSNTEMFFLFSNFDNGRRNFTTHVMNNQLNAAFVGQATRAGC

COc1ccc(C2CC(=O)c3c(O)cc(O)cc3O2)cc1O (centres unmarked) [HST, 3’,5,7-trihydroxy-4’-methoxyflavanone]
LE (ligand efficiency) ((1.4*pIC50)/N): 0.36
inhibition at 1 µM (HST 1 µM, replicates A-C): 31%
inhibition at 5 µM (HST 5 µM, replicates A-C): 67%
inhibition at 10 µM (HST 10 µM, replicates A-C): 78%
inhibition at 20 µM (HST 20 µM, replicates A-C): 93%
inhibition at 30 µM (HST 30 µM, replicates A-C): 100%
% activity, mean (HST 0.25 (µM)): 91.3333%
% inhibition, mean (HST 0.25 (µM)): 8.667%
% activity, mean (HST 0.5 (µM)): 80.6667%
% inhibition, mean (HST 0.5 (µM)): 19.3333%
inhibition at 0.5 µM (HST 0.5 (µM), replicates A-C): 17%
% activity, mean (HST 1 (µM)): 65.3333%
% inhibition, mean (HST 1 (µM)): 34.6667%
inhibition at 2.5 µM (HST 2.5 (µM), replicates A-C): 51%
% activity, mean (HST 5 (µM)): 33.3333%
% inhibition, mean (HST 5 (µM)): 66.6667%
% activity, mean (HST 10 (µM)): 20.3333%
% inhibition, mean (HST 10 (µM)): 79.6667%
% activity, mean (HST 15 (µM)): 11.6667%
% inhibition, mean (HST 15 (µM)): 88.3333%
inhibition at 15 µM (HST 15 (µM), replicates A-C): 86%
% activity, mean (HST 20 (µM)): 5.333%
% inhibition, mean (HST 20 (µM)): 94.6667%
% activity, mean (HST 25 (µM)): 2.333%
% inhibition, mean (HST 25 (µM)): 97.6667%
inhibition at 25 µM (HST 25 (µM), replicates A-C): 96%
IC50 (IC50, 1 µM protease, 3 µM substrate, mean ± SD, n=3): 2500 ± 400 nM
IC50 (IC50, single replicate, HST, single replicates A, B, C): 2.95 µM (2×) and 2.4 µM (2×) and 2.09 µM (2×)
IC50 (IC50 mean, HST, mean of triplicate): 2480 nM
Inhibition mode (Lineweaver-Burk plot): noncompetitive
IC50 (Log conc nM (IC50 determination triplicate), HST, single replicates A, B, C): 2950 nM and 2400 nM and 2090 nM
remaining activity at 0.25 µM (read-out: % activity, HST 0.25 (µM), replicates A-C): 95%
remaining activity at 0.5 µM (read-out: % activity, HST 0.5 (µM), replicates A-C): 83%
remaining activity at 1 µM (read-out: % activity, HST 1 (µM), replicates A-C): 69%
remaining activity at 2.5 µM (read-out: % activity, HST 2.5 (µM), replicates A-C): 49%
remaining activity at 5 µM (read-out: % activity, HST 5 (µM), replicates A-C): 33%
remaining activity at 10 µM (read-out: % activity, HST 10 (µM), replicates A-C): 22%
remaining activity at 15 µM (read-out: % activity, HST 15 (µM), replicates A-C): 14%
remaining activity at 20 µM (read-out: % activity, HST 20 (µM), replicates A-C): 7%
remaining activity at 30 µM (read-out: % activity, HST 30 (µM), replicates A-C): 0%
inhibition at 20 µM (read-out: Inhibition of protease activity, preliminary inhibition test, compound 20 µM): ~90%
